Patent US20170173114A1, “METHODS AND COMPOSITIONS FOR INDUCTION OF UCP1 EXPRESSION” (Joslin Diabetes Center, Inc., priority 2014, published 2017)
Entries after “also recorded” stand apart in the source; their conditions may differ.

Columns and labels:
PGE2-EP4 receptor = molecular target: T1, PGE2-EP4 receptor (Mus musculus, UniProt P32240); assay: PGE2-EP4 receptor inhibitor effect on FGF6-induced UCP1 mRNA in WT-1 cells; format: cell-based, murine; details: 10 uM, with FGF6 24 hours
T1 construct: endogenous in cells; host or cells: WT-1 murine brown preadipocytes
T1 sequence (P32240 whole entry): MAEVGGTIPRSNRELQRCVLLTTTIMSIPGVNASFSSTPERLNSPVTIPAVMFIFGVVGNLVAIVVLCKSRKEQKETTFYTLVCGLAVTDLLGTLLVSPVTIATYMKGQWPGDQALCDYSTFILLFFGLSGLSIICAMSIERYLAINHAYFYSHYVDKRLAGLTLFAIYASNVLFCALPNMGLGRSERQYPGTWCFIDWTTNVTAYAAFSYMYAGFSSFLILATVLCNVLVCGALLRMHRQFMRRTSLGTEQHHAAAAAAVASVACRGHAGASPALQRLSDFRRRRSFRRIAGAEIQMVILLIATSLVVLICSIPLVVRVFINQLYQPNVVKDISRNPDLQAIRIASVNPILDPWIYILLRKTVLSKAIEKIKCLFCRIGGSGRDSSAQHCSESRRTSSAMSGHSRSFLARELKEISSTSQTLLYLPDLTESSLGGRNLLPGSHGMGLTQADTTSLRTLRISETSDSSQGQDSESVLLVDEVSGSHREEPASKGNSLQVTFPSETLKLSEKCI
Method: The role of the PGE2-EP4 receptor was also examined. WT-1 brown adipocytes were pretreated with AH-23848 (Sigma Aldrich), a calcium salt which is an inhibitor of the PGE2-EP4 receptor. Following AH-23848 (“AH”) treatment of the WT-1 cells at concentrations of 0 uM and 10 uM, the cells were treated with FGF6 alone in growth media (DMEM+10% FBS), AH alone, or the combination of FGF6 and AH for 24 hours. UCP1 mRNA expression for each group was then determined.

UCP1 = UCP1 mRNA expression (Q-RT-PCR) in WT-1 brown preadipocytes; format: cell-based, murine
Method: (§1) Total RNA was isolated with QIAzol lysis reagent (Qiagen, Valencia, Calif.) and purified by RNeasy Mini columns (Qiagen) following the manufacture's instructions. cDNA was prepared from total RNA using the Advantage RT-PCR kit (BD Biosciences, Palo Alto, Calif.) according to manufacturer's instructions. Diluted cDNA was used in a PCR reaction with SYBR Green Master Mix (Applied Biosystems, Foster City, Calif.) and primers specifically designed for detection of the gene of interest. PCR reactions were run in duplicate for each sample and quantitated in the ABI Sequence Detection System (Applied Biosystems). Data were expressed as arbitrary units after normalization to levels of expression of internal controls for each sample. Sequences of primers for specific genes are each obtained from the published literature or designed using publically available gene sequence databases. Unless otherwise indicated, gene expression data described in the examples below was obtained using QPCR.
The effect of FGF6 on differentiation of WT-1 murine brown preadipocytes was also examined. WT-1 cells can be induced to undergo brown adipocyte differentiation, characterized by lipid accumulation and expression of adipogenic and brown fat markers, as described above (Klein et al. (1999) J Biol Chem 274:34795; Tseng et al. (2005) Nat Cell Biol 7:601). WT-1 cells were treated with FGF6 in growth media (DMEM+10% FBS), a vehicle control (“control” or “C” referred to in FIGS. 3A-D), or induction media (“induction” or “I” referred to in FIGS. 3A-D) as described above for seven days. Following the treatment, cells were examined for the color of the culture media in combination with oil Red O staining, expression of adipogenic markers, expression of brown fat markers, immunofluorescent staining of cells with UCP1 and DPAI, and Western blot analysis to determine the presence of UCP1 and β-tubulin. The results are described in FIGS. 3A to 3D.
UCP1 mRNA expression in brown adipocyte cells was determined at FGF6 concentrations ranging from 0 to 300 ng/ml in the absence of induction cocktail.
In order to determine the length of time necessary to induce UCP1 expression upon exposure to of cells to FGF6, an experiment was performed whereby FGF6 was administered to brown preadipocytes at a concentration of 200 ng/ml and UCP1 expression was determined. FGF21 and a control were also used in the time course experiment. FGF21, a member of the endocrine FGF ligands that has been implicated in the browning of white fat (Fisher F. M. et al., Genes Dev. 26:271-281, 2012). […] FGF6 could acutely induce a significant increase of UCP1 expression as early as 4 hours after a 200 ng/ml dose, as described in FIG. 4B. At 24 hours, the fold-induction of UCP1 mRNA by FGF6 reached 700-fold higher than the untreated cells, as described in FIG. 4B.
To assess FGF6's role in the regulation of mitochondrial activity, FGF6 was stably expressed in WT-1 brown preadipocytes and 3T3-F442A white preadipocytes. Stable cells were generated by viral infection followed by drug selection.
FGF2, FGF6 and FGF9 were used at a dosage of 50 ng/mL, 100 ng/mL, 200 ng/mL or 300 ng/mL. FGF21 was used at the dosage of 50 ng/ml and 500 ng/mL. The concentration of BMP7 was 3.3 nM. RNA was isolated and UCP1 and PPARγ expression levels were evaluated by quantitative reverse transcription polymerase chain reaction (Q-RT-PCR) analysis after 24 hours (i.e., 1 day) (FIG. 14A), 2 days (FIG. 14B), 5 days (FIG. 14C) and 7 days (FIG. 14D) of treatment. All experiments were performed triplicate and the data are presented as mean+/−SEM.
FGF2, FGF6 and FGF9 were used at a dosage of 200 ng/mL. FGF21 was used at a dosage of 500 ng/mL. The concentration of BMP7 was 3.3 nM. mRNA was isolated and UCP1 and PPARγ expression levels were evaluated by quantitative reverse transcription polymerase chain reaction (Q-RT-PCR) analysis after 24 hours (i.e., 1 day), 2 days, 5 days and 7 days of treatment (FIG. 15). […]

PTGS2 (COX2) = assay: PTGS2 mRNA / COX2 protein expression in WT-1 brown preadipocytes; format: cell-based, murine
Method: as §1
Cells were harvested in lysis buffer (50 mM HEPES, 137 mM NaCl, 1 mM MgCl2, 1 mM CaCl2, 10 mM Na2P2O7, 10 mM NaF, 2 mM EDTA, 10% glycerol, 1% Igepal CA-630, 2 mM vanadate, 10 μg/ml of leupeptin, 10 μg/ml of aprotinin, 2 mM phenylmethylsulfonyl fluoride; pH 7.4). After lysis, lysates were clarified by centrifugation at 12,000×g for 20 min at 4° C., the amount of protein in the supernatants was determined by the Bradford Protein Assay (Bio-Rad Laboratories, Hercules, Calif.). Proteins were directly solubilized in Laemmli sample buffer. Equal amounts of lysates were separated by sodium dodecyl sulfate-polyacrylamide gel electrophoresis and transferred to Immobolin-P membranes. […] Specifically bound primary antibodies were detected with peroxidase-coupled secondary antibody and enhanced chemiluminescence (ECL, Amersham Biosciences, Piscataway, N.J.).
To determine if FGF4, FGF5, FGF6, FGF10, FGF16, FGF17, FGF18 or FGF20 induced either UCP1 mRNA or PTGS2 mRNA expression, murine brown preadipocyte WT-1 cells (Tseng et al., Nat. Cell. Biol. (2005) 7(6):601-611) were grown in growth media (DMEM-high glucose+10% FBS) supplemented with FGF4, FGF5, FGF6, FGF10, FGF16, FGF17, FGF18, FGF20 or buffer (control) in combination with insulin (20 nM) and triidothyronine (T3, 1 nM) for three days. All FGFs were used at a dosage of 200 ng/mL. mRNA was isolated and UCP1 and PTGS2 gene expression levels were evaluated by quantitative reverse transcription polymerase chain reaction (Q-RT-PCR) analysis. […]
To test the role of specific prostaglandins (PGs) in activating UCP1 expression, WT-1 brown adipocytes were pretreated with PGE2, PGI2 and FGF6 for 24 hours. mRNA expression levels of UCP1, PTGS2, LDHA, PDK1 and PKM2 were then measured.

UCP1 and PTGS2 = UCP1 and PTGS2 mRNA in WT-1 cells undergoing adipocyte differentiation; format: cell-based, murine; details: after induction media; 200 ng/mL FGF or 3.3 nM BMP7, 2 days
Method: In a separate experiment investigating the ability of FGF proteins to induce UCP1 expression in cells undergoing adipocyte differentiation, WT-1 preadipocyte cells were differentiated by culturing in growth media supplemented with insulin (20 nM) and triiodothyronine (T3, 1 nM) for 3 days, followed by incubation in an induction media (growth medium supplemented 20 nM insulin, 1 nM T3, 0.5 mM isobutyl-methylxanthine, 5 μM dexamethasone) for 2 days. The cell were then exposed to BMP7 (3.3 nM) or 200 ng/mL of FGF2, FGF6 or, FGF9 in growth media supplemented with insulin (20 nM) and triodothyronine (T3, 1 nM) for 2 additional days. Cells were harvested and UCP1 and PTGS2 mRNA expression levels were determined according to the quantitative RT-PCR assay described above. Experiments were performed in triplicate and the data presented as mean+/−SEM.

[1] = test system: PPARγ, aP2, FAS, PRDM16, PGC1α, CIDEA; assay: Adipogenic and brown fat marker mRNA expression in WT-1 brown preadipocytes; format: cell-based, murine
Method: as §1, with “QPCR. […]” for “QPCR.”
FGF2, FGF6 and FGF9 were used at a dosage of 50 ng/mL, 100 ng/mL, 200 ng/mL or 300 ng/mL. […] RNA was isolated and UCP1 and PPARγ expression levels were evaluated by quantitative reverse transcription polymerase chain reaction (Q-RT-PCR) analysis after 24 hours (i.e., 1 day) (FIG. 14A), 2 days (FIG. 14B), 5 days (FIG. 14C) and 7 days (FIG. 14D) of treatment. […]

UCP1 protein = UCP1 protein in WT-1 cells (immunofluorescent staining, Western blot); format: cell-based, murine; details: WT-1, 200 ng/mL with insulin 20 nM and T3 1 nM; relative to control cells
Method: Cells were harvested in lysis buffer (50 mM HEPES, 137 mM NaCl, 1 mM MgCl2, 1 mM CaCl2, 10 mM Na2P2O7, 10 mM NaF, 2 mM EDTA, 10% glycerol, 1% Igepal CA-630, 2 mM vanadate, 10 μg/ml of leupeptin, 10 μg/ml of aprotinin, 2 mM phenylmethylsulfonyl fluoride; pH 7.4). After lysis, lysates were clarified by centrifugation at 12,000×g for 20 min at 4° C., the amount of protein in the supernatants was determined by the Bradford Protein Assay (Bio-Rad Laboratories, Hercules, Calif.). Proteins were directly solubilized in Laemmli sample buffer. Equal amounts of lysates were separated by sodium dodecyl sulfate-polyacrylamide gel electrophoresis and transferred to Immobolin-P membranes. Membranes were blocked overnight at 4° C. and incubated with the indicated antibody for 2 hours at room temperature. Specifically bound primary antibodies were detected with peroxidase-coupled secondary antibody and enhanced chemiluminescence (ECL, Amersham Biosciences, Piscataway, N.J.).
The effect of FGF6 on differentiation of WT-1 murine brown preadipocytes was also examined. WT-1 cells can be induced to undergo brown adipocyte differentiation, characterized by lipid accumulation and expression of adipogenic and brown fat markers, as described above (Klein et al. (1999) J Biol Chem 274:34795; Tseng et al. (2005) Nat Cell Biol 7:601). […]

FGF6 mRNA = FGF6 mRNA expression in adipose tissue of mice treated with β3-adrenergic agonist; format: in vivo, C57BL/6 mice; details: intraperitoneal 1 mg/kg body weight for 10 days; relative to PBS control
Method: as §1
CL316,243 was administered by intraperitoneal injection to the mice at a dose of 1 mg/kg body weight for 10 days.

[2] = 50, 100 or 300 ng/mL with insulin and T3, three days, FGF1 effect at 300 ng/ml
[3] = 200 ng/mL with insulin and T3, three days

O=C(O)CC/C=C\CC[C@H]1[C@H](N2CCOCC2)C(=O)C[C@H]1OCc1ccc(-c2ccccc2)cc1 [AH-23848]
effect of FGF6 on UCP1 expression in the presence of inhibitor (PGE2-EP4 receptor): reduced; also recorded: suppression

FGF1: fibroblast growth factor 1, recombinant human, R&D Systems
UCP1 mRNA expression (UCP1; [2]): induced expression
PTGS2 mRNA expression (PTGS2 (COX2); [2]): induced expression

FGF16: fibroblast growth factor 16
expression of UCP1 (UCP1; [3]): minimal expression

FGF2: fibroblast growth factor 2, recombinant human, R&D Systems
UCP1 expression level (UCP1; 50-300 ng/mL with insulin and T3, 1, 2, 5 and 7 days, dose-responsive): very high levels of UCP1
UCP1 expression level, time course (UCP1; FGF2, FGF6, FGF9 200 ng/mL, FGF21 500 ng/mL, with insulin and T3, 1, 2, 5, 7 days): very high levels of UCP1
PTGS2 mRNA expression in cells undergoing adipocyte differentiation (UCP1 and PTGS2): able to induce
UCP1 mRNA expression in cells undergoing adipocyte differentiation (UCP1 and PTGS2): able to induce
PPARγ expression level, time course ([1]; 200 ng/mL with insulin and T3, 1, 2, 5, 7 days): very low levels of PPARγ
PPARγ expression level ([1]; 50-300 ng/mL with insulin and T3, 1, 2, 5 and 7 days): very low levels of PPARγ
UCP1 protein, immunofluorescent staining (UCP1 protein): significant levels of staining

FGF20: fibroblast growth factor 20
PTGS2 mRNA expression relative to the control (PTGS2 (COX2); [3]): increased

C[C@H](Cc1ccc2c(c1)OC(C(=O)[O-])(C(=O)[O-])O2)NC[C@H](O)c1cccc(Cl)c1.[Na+].[Na+] [CL316,243]
FGF6 mRNA expression levels in interscapular BAT and subcutaneous WAT (FGF6 mRNA): increased
